In paper PMC6158189, “A pharmacological probe identifies cystathionine β-synthase as a new negative regulator for ferroptosis” (Cell Death & Disease, 2018):

Target: T1, hCBS-FL wild type (293T-CBS WT) (Homo sapiens, UniProt P35520)
T1 construct: human CBS or hCSE full-length (CBS-FL or CSE) was subcloned into pGEX-KG, pcDNA3 or pCDH vector; expressed in transfected cells
T1 sequence (P35520 1-551): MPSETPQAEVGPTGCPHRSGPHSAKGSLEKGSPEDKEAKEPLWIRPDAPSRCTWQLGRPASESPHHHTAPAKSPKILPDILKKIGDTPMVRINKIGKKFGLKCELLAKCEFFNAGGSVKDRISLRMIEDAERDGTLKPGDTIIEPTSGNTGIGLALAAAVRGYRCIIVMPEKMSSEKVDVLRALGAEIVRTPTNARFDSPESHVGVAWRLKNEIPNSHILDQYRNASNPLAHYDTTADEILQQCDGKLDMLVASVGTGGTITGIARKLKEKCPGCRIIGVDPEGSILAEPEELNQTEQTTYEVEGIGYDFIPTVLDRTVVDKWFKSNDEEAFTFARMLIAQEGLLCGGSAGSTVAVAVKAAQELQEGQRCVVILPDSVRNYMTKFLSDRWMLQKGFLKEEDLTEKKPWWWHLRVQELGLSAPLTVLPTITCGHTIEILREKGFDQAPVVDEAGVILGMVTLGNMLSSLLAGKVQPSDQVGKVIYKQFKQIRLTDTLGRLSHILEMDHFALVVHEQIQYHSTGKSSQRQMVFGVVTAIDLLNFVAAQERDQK
Assay: H2S in HEK293T cells stably expressing hCBS WT (AzMC probe)
Format: cell-based
Conditions: 8 h, 293T-CBS WT
Procedure: HEK293T cells were transiently transfected with empty vector (EV, i and ii), hCBS-FL (iii and iv) or hCSE (v and vi) plasmids, followed by incubation with DMSO (i–iii and v) or 10 μM CH004 (iv and vi) for 8 h before staining with 50 μM AzMC, a H2S-specific probe (“Materials and Methods” section). For larger fluorescent and bright-field images, please see Supplementary Figure 4. The expression levels of hCBS or hCSE in HEK293T cells after transient transfections were determined by western blotting using an anti-CBS antibody (3E1, 1:2000; Abnova) or anti-CSE antibody (1:500, GeneTex). The densities of protein bands for hCBS or hCSE in the blots were quantified with the ImageJ software (National Institutes of Health, Bethesda, MD, USA) and expressed as ratios of respective control (EV group). All immunoblots are representative of at least two independent experiments using GAPDH as the loading control. The fluorescent images of the H2S (blue) were accordingly quantified (“Materials and Methods” section) with ImageJ. […] The DMSO groups of the controls (CTR), which are expressing of hCBS or hCSE, were normalized to 100% and the levels of H2S in CH004-treated or EV group are shown as relative percentages. c, d CH004 dose-dependently suppresses the activity of hCBS WT without affecting the activity of CH004-insensitive mutant. HEK293T cells stably expressing EV (i and ii), hCBS-FL wild type (293T-CBS WT; iii–v) or CBS-FL mutant (293T-CBS Q222A, vi–viii) were treated with DMSO (i–iii and vi), 5 μM CH004 (iv, vii) or 10 μM CH004 (v, viii) for 8 h before staining with the AzMC. For larger fluorescent and bright-field images, please see Supplementary Figures 5–6. […] The DMSO groups of the controls (CTR), which are expressing of hCBS-FL wt or Q222A mutant, were normalized to 100% and the levels of H2S in CH004-treated or EV group are shown as relative percentages. A representative fluorescence image from three independent experiments is shown. Means ± SDS (n = 3). Statistical analyses were performed on the raw data for each group by one-way (b) or two-way (d) ANOVA with Bonferroni post-tests. ***p < 0.001. Bars, 50 μm
H2S levels in living cells were detected using a H2S-specific fluorescent probe according to a protocol described previously[31],[55]. To measure H2S in transiently transfected HEK293T cells, the cells were seeded on poly-D-Lys-coated coverslips (Thermo Scientific, Waltham, MA, USA) in 12-well plates at a density of ~ 1 × 10^5 cells per well, and hCBS or hCSE plasmids were transiently transfected by X-tremeGENE HP DNA Transfection Reagent according to the manufacturer’s protocol (Roche, Basel, Switzerland). […] After incubation with 50 μM AzMC at 37 °C for 30 min, the cells were washed 4 times with PBS, and the fluorescent images were recorded with excitation by 405 nm laser by using a A1Si (Nikon) confocal microscope. The intensity of the blue fluorescent signals, indicating the amount of H2S, was quantified by ImageJ software (NIH, Bethesda, ML). The H2S signal was then corrected for the background signal detected in HEK293T cells transiently or stably expressing of empty vector (HEK293T-EV) and normalized by the corresponding cell-occupying area and compared with the control (DMSO group, 100%). Similarly, the H2S signal in HepG2 cells was quantified by AzMC staining, corrected for the background signal outside the cells, normalized by the cell area and expressed as percentages of DMSO control (100%). […]

## Cn1nc(Cc2ccccc2)nc2c(=O)n(C)c(=O)nc1-2 [CH004, 3-benzyl-1,6-dimethylpyrimido[5,4-e][1,2,4]triazine-5,7(1H,6H)-dione]
5 μM
  decrease in H2S: 22%
10 μM
  decrease in H2S: 43%
